Among the data in publication PMC11440839, “DOTA Conjugate of Bisphosphonate and PSMA-Inhibitor: A Promising Combination for Therapy of Prostate Cancer Related Bone Metastases” (Frontiers in Nuclear Medicine, 2022) are Ki values, retold here.

The assay deals with T1, PSMA (prostate-specific membrane antigen); glutamate carboxypeptidase II (GCPII) (Homo sapiens, UniProt Q04609).
T1 construct: gene FOLH1; native full-length type II transmembrane protein on intact LNCaP cells; 750 amino acids
As to the kind of experiment: competitive radioligand assay on LNCaP cells. It is filed as cell-based. As to conditions: competition with 0.75 nM [68Ga]Ga-PSMA-10, 45 min. The source says: competitive radioligand assay on LNCaP cells on PSMA (prostate-specific membrane antigen); glutamate carboxypeptidase II (GCPII)

T1 sequence (Q04609 whole entry): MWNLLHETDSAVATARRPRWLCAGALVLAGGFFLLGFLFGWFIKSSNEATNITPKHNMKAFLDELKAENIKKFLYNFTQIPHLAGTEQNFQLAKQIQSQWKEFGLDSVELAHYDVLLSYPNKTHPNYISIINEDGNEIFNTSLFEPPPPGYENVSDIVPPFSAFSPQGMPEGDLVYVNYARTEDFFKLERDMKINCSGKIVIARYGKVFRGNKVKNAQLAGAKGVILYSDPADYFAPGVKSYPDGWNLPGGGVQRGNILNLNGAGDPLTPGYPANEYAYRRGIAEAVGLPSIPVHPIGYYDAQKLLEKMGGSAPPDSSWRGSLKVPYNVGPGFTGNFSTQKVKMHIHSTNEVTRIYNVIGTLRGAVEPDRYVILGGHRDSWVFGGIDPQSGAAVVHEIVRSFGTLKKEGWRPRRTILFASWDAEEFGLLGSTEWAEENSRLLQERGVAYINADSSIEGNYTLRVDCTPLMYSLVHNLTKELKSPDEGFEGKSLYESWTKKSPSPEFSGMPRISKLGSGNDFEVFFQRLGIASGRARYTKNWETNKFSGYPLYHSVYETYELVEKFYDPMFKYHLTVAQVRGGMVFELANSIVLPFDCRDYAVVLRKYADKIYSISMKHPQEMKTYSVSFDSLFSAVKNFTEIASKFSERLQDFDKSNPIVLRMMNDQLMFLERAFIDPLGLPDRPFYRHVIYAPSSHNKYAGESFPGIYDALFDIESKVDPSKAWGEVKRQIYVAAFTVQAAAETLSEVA

As to `NCCCC[C@H](NC(=O)CN1CCN(CC(=O)O)CCN(CC(=O)O)CCN(CC(=O)O)CC1)C(=O)NC[C@H]1CC[C@H](C(=O)N[C@@H](Cc2ccc3ccccc3c2)C(=O)NCCCC[C@H](NC(=O)N[C@@H](CCC(=O)O)C(=O)O)C(=O)O)CC1` [compound 12, DOTA-L-Lys-PSMA-617], for the setting “metal-free ligand”, the affinity corresponds to a Ki of 19.7 ± 3.3 nM.
`O=C(O)CC[C@H](NC(=O)N[C@@H](CCCCNC(=O)[C@H](Cc1ccc2ccccc2c1)NC(=O)[C@H]1CC[C@H](CNC(=O)[C@H](CCCCNc2c(NCCC(O)(P(=O)(O)O)P(=O)(O)O)c(=O)c2=O)NC(=O)CN2CCN(CC(=O)O)CCN(CC(=O)O)CCN(CC(=O)O)CC2)CC1)C(=O)O)C(=O)O` [compound 13, DOTA-L-Lys(SA.Pam)-PSMA-617] gave a Ki (metal-free ligand) of 52.6 ± 3.5 nM.
In the case of `O=C(O)CC[C@H](NC(=O)N[C@@H](CCCCNC(=O)[C@H](Cc1ccc2ccccc2c1)NC(=O)[C@H]1CC[C@H](CNC(=O)CN2CCN(CC(=O)O)CCN(CC(=O)O)CCN(CC(=O)O)CC2)CC1)C(=O)O)C(=O)O` [PSMA-617], where the note is “reference compound, footnote: IC50 values can be found in the earlier paper of the same first author (ref 48), cited from earlier work”, the Ki is 6.9 ± 1.3 nM.

In general, Ki refers to the dissociation constant of the complex between target and ligand, obtained from inhibition or displacement.
